Measured values taken from US10758534B2 (Vertex Pharmaceuticals Incorporated, priority 2014, dated 2020).

Target: T1, F508del (Homo sapiens, UniProt P13569, DEL508-508)
T1 construct: expressed in transfected cells
Test: Protocol 1: membrane potential optical assay (FLIPR III, voltage sensing dye), identification of potentiator compounds
Format: cell-based
Settings: Table 3, compounds of Table 1
Summary of the method: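 Gating potentiation is read as a membrane-potential fluorescence change (FLIPR III, voltage-sensing dye) after one forskolin addition under a Cl− gradient, with gluconate replacing chloride, pH 7.4. Cells are F508del-expressing NIH3T3 mouse fibroblasts held 24 h at 27 °C and exposed to compound before dye loading.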

T1 sequence (P13569 with tags, fused parts or gaps DEL508-508): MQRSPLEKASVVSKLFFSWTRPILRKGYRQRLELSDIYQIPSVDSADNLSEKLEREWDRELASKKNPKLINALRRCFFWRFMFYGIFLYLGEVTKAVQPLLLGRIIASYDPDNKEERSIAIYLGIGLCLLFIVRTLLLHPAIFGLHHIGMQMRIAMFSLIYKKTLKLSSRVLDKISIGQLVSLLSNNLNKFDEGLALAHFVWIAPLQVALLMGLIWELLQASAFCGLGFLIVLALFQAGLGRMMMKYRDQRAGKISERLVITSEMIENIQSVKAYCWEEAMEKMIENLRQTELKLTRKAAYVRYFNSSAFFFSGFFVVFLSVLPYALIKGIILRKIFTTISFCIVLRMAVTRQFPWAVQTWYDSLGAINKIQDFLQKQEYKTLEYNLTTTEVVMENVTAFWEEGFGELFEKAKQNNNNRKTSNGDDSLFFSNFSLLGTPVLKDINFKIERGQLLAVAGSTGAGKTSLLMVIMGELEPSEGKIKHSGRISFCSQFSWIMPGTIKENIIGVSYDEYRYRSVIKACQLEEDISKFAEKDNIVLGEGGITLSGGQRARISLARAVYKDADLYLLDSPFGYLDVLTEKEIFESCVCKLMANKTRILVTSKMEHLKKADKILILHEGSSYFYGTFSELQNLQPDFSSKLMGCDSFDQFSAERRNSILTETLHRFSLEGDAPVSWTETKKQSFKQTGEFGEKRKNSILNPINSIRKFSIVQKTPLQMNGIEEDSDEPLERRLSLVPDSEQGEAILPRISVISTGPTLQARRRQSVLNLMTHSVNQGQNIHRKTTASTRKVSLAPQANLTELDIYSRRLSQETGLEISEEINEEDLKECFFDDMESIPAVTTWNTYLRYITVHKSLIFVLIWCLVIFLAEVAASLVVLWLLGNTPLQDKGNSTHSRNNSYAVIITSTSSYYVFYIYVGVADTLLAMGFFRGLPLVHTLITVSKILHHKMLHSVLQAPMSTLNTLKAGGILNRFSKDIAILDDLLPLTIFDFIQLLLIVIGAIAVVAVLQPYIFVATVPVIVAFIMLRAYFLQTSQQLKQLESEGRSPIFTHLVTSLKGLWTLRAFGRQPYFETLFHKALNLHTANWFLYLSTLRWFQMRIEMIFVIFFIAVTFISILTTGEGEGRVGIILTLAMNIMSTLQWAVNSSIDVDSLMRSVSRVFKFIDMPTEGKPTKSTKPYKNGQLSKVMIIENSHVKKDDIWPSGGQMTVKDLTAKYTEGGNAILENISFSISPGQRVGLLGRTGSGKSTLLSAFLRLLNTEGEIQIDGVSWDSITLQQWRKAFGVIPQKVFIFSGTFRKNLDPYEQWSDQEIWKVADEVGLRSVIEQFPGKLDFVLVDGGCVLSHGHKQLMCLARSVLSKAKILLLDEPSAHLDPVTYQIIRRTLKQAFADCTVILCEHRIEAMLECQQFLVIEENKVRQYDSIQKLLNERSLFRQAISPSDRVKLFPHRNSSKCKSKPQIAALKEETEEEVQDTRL

Row | EC30 | Structure (SMILES)
1 | ++ (“++” means between 3 uM and 10 uM) | CC(C)CNc1ccc(-c2ccc(C(=O)NS(=O)(=O)c3cccc(N)n3)c(N3[C@H](C)CC[C@@H]3C)n2)cn1 [Compound 1398, N-[(6-amino-2-pyridyl)sulfonyl]-2-[(2S,5R)-2,5-dimethylpyrrolidin-1-yl]-6-[6-(isobutylamino)-3-pyridyl]pyridine-3-carboxamide]
2 | +++ (“+++” means <3 uM) | Cc1ccc(-c2ccc(C(=O)NS(=O)(=O)c3cccnc3N)c(N3C[C@@H](C)CC3(C)C)n2)c(O)c1 [Compound 1731, N-[(2-amino-3-pyridyl)sulfonyl]-6-(2-hydroxy-4-methyl-phenyl)-2-[(4S)-2,2,4-trimethylpyrrolidin-1-yl]pyridine-3-carboxamide]
3 | ++ (“++” means between 3 uM and 10 uM) | C[C@@H]1CN(c2ncc(Cl)cc2C(=O)NS(=O)(=O)c2cccc(N)n2)C(C)(C)C1 [Compound 1603, N-[(6-amino-2-pyridyl)sulfonyl]-5-chloro-2-[(4S)-2,2,4-trimethylpyrrolidin-1-yl]pyridine-3-carboxamide]
4 | ++ (“++” means between 3 uM and 10 uM) | Cc1ccc(-c2nc(C(C)(C)C)ccc2C(=O)NS(=O)(=O)c2ccc(O)cc2)cc1 [Compound 809, 6-tert-butyl-N-(4-hydroxyphenyl)sulfonyl-2-(p-tolyl)pyridine-3-carboxamide]
5 | +++ (“+++” means <3 uM) | C[C@@H]1CN(c2nc(-c3cccc(Cl)c3)ccc2C(=O)NS(=O)(=O)c2ccc[nH]c2=O)C(C)(C)C1 [Compound 1791, 6-(3-chlorophenyl)-N-[(2-oxo-1H-pyridin-3-yl)sulfonyl]-2-[(4S)-2,2,4-trimethylpyrrolidin-1-yl]pyridine-3-carboxamide]
6 | +++ (“+++” means <3 uM) | CC(C)Oc1ccc(-c2ccc(C(=O)NS(=O)(=O)c3cccc(N)n3)c(N3CCC(C)C(C)C3)n2)cn1 (centres unmarked) [Compound 979, N-[(6-amino-2-pyridyl)sulfonyl]-2-(3,4-dimethyl-1-piperidyl)-6-(6-isopropoxy-3-pyridyl)pyridine-3-carboxamide]
7 | +++ (“+++” means <3 uM) | CCOc1cccc2c1CN(Cc1c(C)cc(C)cc1C)C2(C)C(=O)NS(=O)(=O)c1ccc(F)c(N)c1 (centres unmarked) [Compound 1394, N-(3-amino-4-fluoro-phenyl)sulfonyl-4-ethoxy-1-methyl-2-[(2,4,6-trimethylphenyl)methyl]isoindoline-1-carboxamide]
8 | ++ (“++” means between 3 uM and 10 uM) | CCc1ccc(C(=O)NS(=O)(=O)c2cccc(N)n2)c(Oc2c(C)cc(C)cc2C)n1 [Compound 963, N-[(6-amino-2-pyridyl)sulfonyl]-6-ethyl-2-(2,4,6-trimethylphenoxy)pyridine-3-carboxamide]
9 | ++ (“++” means between 3 uM and 10 uM) | Cc1cc(C)c(Oc2nc(C3CC(=O)CC(C)(C)C3)ccc2C(=O)NS(=O)(=O)c2cccc(N)n2)c(C)c1 (centres unmarked) [Compound 1492, N-[(6-amino-2-pyridyl)sulfonyl]-6-(3,3-dimethyl-5-oxo-cyclohexyl)-2-(2,4,6-trimethylphenoxy)pyridine-3-carboxamide]
10 | ++ (“++” means between 3 uM and 10 uM) | Cc1cc(C)c(Oc2nc(C3CCC(F)(F)CC3)ccc2C(=O)NS(=O)(=O)c2ccc[nH]c2=O)c(C)c1 [Compound 1329, 6-(4,4-difluorocyclohexyl)-N-[(2-oxo-1H-pyridin-3-yl)sulfonyl]-2-(2,4,6-trimethylphenoxy)pyridine-3-carboxamide]
11 | +++ (“+++” means <3 uM) | CC(C)Oc1ccc(-c2ccc(C(=O)NS(=O)(=O)c3cccc(N)n3)c(N3C[C@@H](C)C[C@H](C)C3)n2)cn1 [Compound 1136, N-[(6-amino-2-pyridyl)sulfonyl]-2-[(3S,5S)-3,5-dimethyl-1-piperidyl]-6-(6-isopropoxy-3-pyridyl)pyridine-3-carboxamide]
12 | +++ (“+++” means <3 uM) | Cc1cc(C)c(CN2CCc3ccccc3CC2C(=O)NS(=O)(=O)c2ccccc2)c(C)c1 (centres unmarked) [Compound 1039, N-(benzenesulfonyl)-3-[(2,4,6-trimethylphenyl)methyl]-1,2,4,5-tetrahydro-3-benzazepine-4-carboxamide]
13 | +++ (“+++” means <3 uM) | CC1CN(c2ncc(-c3cccc(OC(C)C)c3)cc2C(=O)NS(=O)(=O)c2cccc(N)n2)C(C)(C)C1 (centres unmarked) [Compound 1804, N-[(6-amino-2-pyridyl)sulfonyl]-5-(3-isopropoxyphenyl)-2-(2,2,4-trimethylpyrrolidin-1-yl)pyridine-3-carboxamide]
14 | ++ (“++” means between 3 uM and 10 uM) | C[C@@H]1CN(c2ncccc2C(=O)NS(=O)(=O)c2cccc(N)n2)C(C)(C)C1 [Compound 946, N-[(6-amino-2-pyridyl)sulfonyl]-2-[(4S)-2,2,4-trimethylpyrrolidin-1-yl]pyridine-3-carboxamide]
15 | +++ (“+++” means <3 uM) | CCOc1nn(-c2ccc(C(=O)NS(=O)(=O)c3ccc[nH]c3=O)c(N3C[C@@H](C)CC3(C)C)n2)cc1C [Compound 1856, 6-(3-ethoxy-4-methyl-pyrazol-1-yl)-N-[(2-oxo-1H-pyridin-3-yl)sulfonyl]-2-[(4S)-2,2,4-trimethylpyrrolidin-1-yl]pyridine-3-carboxamide]
16 | +++ (“+++” means <3 uM) | C[C@@H]1CN(c2nc(-c3ccc(OC(F)(F)F)cc3)ccc2C(=O)NS(=O)(=O)c2cccc(N)n2)C(C)(C)C1 [Compound 1785, N-[(6-amino-2-pyridyl)sulfonyl]-6-[4-(trifluoromethoxy)phenyl]-2-[(4S)-2,2,4-trimethylpyrrolidin-1-yl]pyridine-3-carboxamide]
17 | +++ (“+++” means <3 uM) | COc1cccc(CN(C)c2cccc(S(=O)(=O)NC(=O)c3cccnc3N3CC(C)CC3(C)C)n2)c1 (centres unmarked) [Compound 1940, N—[[6-[(3-methoxyphenyl)methyl-methyl-amino]-2-pyridyl]sulfonyl]-2-(2,2,4-trimethylpyrrolidin-1-yl)pyridine-3-carboxamide]
18 | ++ (“++” means between 3 uM and 10 uM) | C[C@@H]1CC[C@H](C)N1c1nc(-c2ccc(OC3CC3)nc2)ccc1C(=O)NS(=O)(=O)c1cccc(N)n1 [Compound 1125, N-[(6-amino-2-pyridyl)sulfonyl]-6-[6-(cyclopropoxy)-3-pyridyl]-2-[(2S,5R)-2,5-dimethylpyrrolidin-1-yl]pyridine-3-carboxamide]
19 | + (“+” means greater than 10 uM) | Cc1cc(C)c(Oc2nc(-c3cccc(O)c3)ccc2C(=O)NS(=O)(=O)c2cccc(N)n2)c(C)c1 [Compound 908, N-[(6-amino-2-pyridyl)sulfonyl]-6-(3-hydroxyphenyl)-2-(2,4,6-trimethylphenoxy)pyridine-3-carboxamide]
20 | +++ (“+++” means <3 uM) | CCOc1cccc2c1CN(Cc1c(C)cc(C)cc1C)C2(C)C(=O)NS(=O)(=O)c1ccc(O)cc1 (centres unmarked) [Compound 1453, 4-ethoxy-N-(4-hydroxyphenyl)sulfonyl-1-methyl-2-[(2,4,6-trimethylphenyl)methyl]isoindoline-1-carboxamide]
21 | +++ (“+++” means <3 uM) | Cc1cc(C)c(Oc2nc(-c3cccc4c3OCO4)ccc2C(=O)NS(=O)(=O)c2cccc(N)n2)c(C)c1 [Compound 974, N-[(6-amino-2-pyridyl)sulfonyl]-6-(1,3-benzodioxol-4-yl)-2-(2,4,6-trimethylphenoxy)pyridine-3-carboxamide]

Row | Structure (SMILES) | EC30
22 | CC(C)COc1cc(F)cc(-c2ccc(C(=O)NS(=O)(=O)c3cccc(O)c3)c(N3C[C@@H](C)CC3(C)C)n2)c1 [Compound 1885, 6-(3-fluoro-5-isobutoxy-phenyl)-N-(3-hydroxyphenyl)sulfonyl-2-[(4S)-2,2,4-trimethylpyrrolidin-1-yl]pyridine-3-carboxamide] | +++ (“+++” means <3 uM)
23 | CC(C)COc1cc(F)cc(-c2ccc(C(=O)NS(=O)(=O)c3cccc(N)n3)c(OCCC3CCC3)n2)c1 [Compound 1418, N-[(6-amino-2-pyridyl)sulfonyl]-2-(2-cyclobutylethoxy)-6-(3-fluoro-5-isobutoxy-phenyl)pyridine-3-carboxamide] | +++ (“+++” means <3 uM)
24 | CC(C)COc1cc(F)cc(-c2ccc(C(=O)NS(=O)(=O)c3cccc(N)n3)c(OC(C)C3CCCC3)n2)c1 (centres unmarked) [Compound 1374, N-[(6-amino-2-pyridyl)sulfonyl]-2-(1-cyclopentylethoxy)-6-(3-fluoro-5-isobutoxy-phenyl)pyridine-3-carboxamide] | +++ (“+++” means <3 uM)
25 | CC(C)COc1cc(F)cc(-c2ccc(C(=O)NS(=O)(=O)c3ccn[nH]3)c(N3CCC(c4ccccc4)CC3)n2)c1 [Compound 1315, 6-(3-fluoro-5-isobutoxy-phenyl)-2-(4-phenyl-1-piperidyl)-N-(1H-pyrazol-5-ylsulfonyl)pyridine-3-carboxamide] | +++ (“+++” means <3 uM)
26 | CCC1(C)CC(C)CN1c1nc(-c2cc(F)cc(OCC(C)C)c2)ccc1C(=O)NS(=O)(=O)c1cccc(N)n1 (single isomer, unassigned) [Compound 1729, N-[(6-amino-2-pyridyl)sulfonyl]-2-(2-ethyl-2,4-dimethyl-pyrrolidin-1-yl)-6-(3-fluoro-5-isobutoxy-phenyl)pyridine-3-carboxamide] | +++ (“+++” means <3 uM)
27 | CC(C)COc1cc(F)cc(-c2ccc(C(=O)NS(=O)(=O)c3ccn[nH]3)c(N3CCC(C)C(C)(C)C3)n2)c1 (centres unmarked) [Compound 1174, 6-(3-fluoro-5-isobutoxy-phenyl)-N-(1H-pyrazol-5-ylsulfonyl)-2-(3,3,4-trimethyl-1-piperidyl)pyridine-3-carboxamide] | +++ (“+++” means <3 uM)
28 | CC(C)COc1cc(F)cc(-c2ccc(C(=O)NS(=O)(=O)c3cccc(N)n3)c(OCC3CCCC3)n2)c1 [Compound 1450, N-[(6-amino-2-pyridyl)sulfonyl]-2-(cyclopentylmethoxy)-6-(3-fluoro-5-isobutoxy-phenyl)pyridine-3-carboxamide] | +++ (“+++” means <3 uM)
29 | COC[C@H]1CCCN1c1nc(-c2cc(F)cc(OCC(C)C)c2)ccc1C(=O)NS(=O)(=O)c1cccc(N)n1 [Compound 1149, N-[(6-amino-2-pyridyl)sulfonyl]-6-(3-fluoro-5-isobutoxy-phenyl)-2-[(2R)-2-(methoxymethyl)pyrrolidin-1-yl]pyridine-3-carboxamide] | +++ (“+++” means <3 uM)
